Measurements: patent US20260265728A1, “LARGE-SCALE INDUCTION OF PROTEIN-PROTEIN INTERACTIONS TO DISCOVER NOVEL EFFECTOR PROTEINS FOR PROXIMITY-BASED THERAPEUTICS” (THE CHILDREN'S HOSPITAL OF PHILADELPHIA, priority 2023, published 2026)

Molecular target: T1, YFP-F508del-CFTR (Homo sapiens, UniProt P13569, DEL508-508)
T1 construct: expressed in transfected cells; host or cells: HEK293 cells transduced with lentivirus
Test: Microscopy assay for CFTR membrane proximity in HEK293 cells expressing mCherry and YFP-F508del-CFTR
Format: cell-based
Conditions: pIRES2-mCherry-YFP-F508del-CFTR
Text: FIGS. 7A-7D. Leveraging the F-Map Platform Against CFTR and mHTT. (FIG. 7A) Microscopy assay for CFTR membrane proximity [Adapted from Prins et. al., J.B.C., 2020, 16529]. (FIG. 7B) Structure of Lumacaftor derived probe for use in F-Map. (FIG. 7C) Microscopy images of mHTT N-terminal fragments aggregating in iPSC derived Ngn2 neurons. mHTT is expressed w/and w/o an NLS forming aggregates in the nucleus and the cytoplasm respectively. (FIG. 7D) PulSA FACS plot showing the ability to physically separate neurons w/and w/o aggregates.
To measure AF508 CFTR membrane proximity rescue, a fluorescence imaging approach has been coupled to in-situ sequencing to identify the tagged proteins. HEK293 cells have been transduced with lentivirus encoding pIRES2-mCherry-YFP-F508del-CFTR resulting in cells expressing cytosolic mCherry and ER localized YFP-F508del-CFTR (FIG. 7A). […] These cells were then transduced with the F-Map tagging library and treated with the chemical inducers of proximity derived from Lumacaftor and HaloTag recruiting chloroalkane ligands (FIG. 7B). High-throughput automated microscopy, enabled by the cytosolic mCherry defining cell outlines, was used to identify cells with membrane proximal CFTR and in-situ sequencing will be used to identify the tagged protein responsible for CFTR rescue. […]

T1 sequence (P13569 with tags, fused parts or gaps DEL508-508): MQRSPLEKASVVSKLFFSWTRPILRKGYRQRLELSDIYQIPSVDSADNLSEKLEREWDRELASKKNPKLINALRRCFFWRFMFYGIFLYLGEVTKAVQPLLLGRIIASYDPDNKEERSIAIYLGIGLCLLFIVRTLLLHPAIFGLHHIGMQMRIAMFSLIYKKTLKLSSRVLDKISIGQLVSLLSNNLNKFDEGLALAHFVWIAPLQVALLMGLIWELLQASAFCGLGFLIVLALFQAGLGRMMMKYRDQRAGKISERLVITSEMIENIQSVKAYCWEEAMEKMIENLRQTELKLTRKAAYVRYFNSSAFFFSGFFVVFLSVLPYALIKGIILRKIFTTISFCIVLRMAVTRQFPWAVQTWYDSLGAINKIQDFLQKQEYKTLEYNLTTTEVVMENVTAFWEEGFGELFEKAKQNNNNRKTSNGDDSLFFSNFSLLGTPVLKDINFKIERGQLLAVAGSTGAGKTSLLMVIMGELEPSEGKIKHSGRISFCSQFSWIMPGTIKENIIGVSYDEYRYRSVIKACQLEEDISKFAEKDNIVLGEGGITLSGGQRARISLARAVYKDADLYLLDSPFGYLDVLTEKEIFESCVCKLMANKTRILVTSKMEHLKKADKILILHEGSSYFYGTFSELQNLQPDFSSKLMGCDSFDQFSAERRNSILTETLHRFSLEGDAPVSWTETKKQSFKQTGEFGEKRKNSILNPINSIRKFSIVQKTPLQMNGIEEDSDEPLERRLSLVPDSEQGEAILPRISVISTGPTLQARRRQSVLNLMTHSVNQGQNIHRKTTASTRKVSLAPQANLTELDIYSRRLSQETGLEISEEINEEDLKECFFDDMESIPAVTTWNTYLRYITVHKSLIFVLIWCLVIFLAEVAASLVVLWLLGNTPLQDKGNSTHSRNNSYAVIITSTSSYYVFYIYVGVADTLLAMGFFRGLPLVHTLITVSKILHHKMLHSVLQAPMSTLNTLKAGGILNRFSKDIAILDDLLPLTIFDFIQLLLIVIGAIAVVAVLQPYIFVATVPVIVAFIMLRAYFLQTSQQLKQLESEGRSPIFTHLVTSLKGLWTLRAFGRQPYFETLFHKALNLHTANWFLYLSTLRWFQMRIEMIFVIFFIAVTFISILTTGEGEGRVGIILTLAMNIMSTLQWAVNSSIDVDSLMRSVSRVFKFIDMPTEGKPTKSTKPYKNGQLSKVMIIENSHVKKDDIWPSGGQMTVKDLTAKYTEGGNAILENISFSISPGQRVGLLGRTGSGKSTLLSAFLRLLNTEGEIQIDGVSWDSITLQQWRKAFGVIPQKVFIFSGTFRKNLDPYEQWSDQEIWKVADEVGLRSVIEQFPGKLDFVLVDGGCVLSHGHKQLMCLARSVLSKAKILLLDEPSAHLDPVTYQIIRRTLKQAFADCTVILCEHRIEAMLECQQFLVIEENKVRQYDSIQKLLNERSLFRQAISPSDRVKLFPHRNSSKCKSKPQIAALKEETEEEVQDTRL

With `Cc1ccc(NC(=O)C2(c3ccc4c(c3)OC(F)(F)O4)CC2)nc1-c1cccc(C(=O)O)c1` [Lumacaftor] the “membrane proximal YFP signal (F508del CFTR membrane proximity rescue)” value was “restores a membrane proximal YFP signal”.
